Assay results published in US20100210649A1, “PYRIDAZINONES AND FURAN-CONTAINING COMPOUNDS” (Sloan-Kettering Institute for Cancer Research, priority 2006, published 2010).
Where “and” joins values, the source holds several entries; their conditions need not be identical. Equal values may be shown once. Read-outs that look alike come from different tables or passages of the source.

What was measured:
H1975 = assay: Non Small Cell Lung Cancer proliferation assay (Alamar Blue reduction), H1975; format: cell-based, human; conditions: for inhibition at 10 µM / IC50: Homo sapiens; for inhibition at 10 µM: NCI-H1975, primary screening, H1975, read-out: PRIMARY HTS [%] H1975 (percentage inhibition); for inhibition at 10 µM / CONFIRMATION [%] 1975: 10 μM compound in 1% DMSO (v/v); for CONFIRMATION [%] 1975: percentage inhibition
Method in brief: (§1)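 Compounds are tested at 1% DMSO final concentration against adherent NSCLC cells for 48 h at 37° C, with cytotoxicity measured by Alamar Blue reduction after a further 48 h incubation.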

H3255 = assay: Non Small Cell Lung Cancer proliferation assay (Alamar Blue reduction), H3255; format: cell-based, human; conditions: for inhibition at 10 µM / IC50: Homo sapiens; for inhibition at 10 µM: NCI-H3255, primary screening, H3255, read-out: PRIMARY HTS [%] H3255 (percentage inhibition); for inhibition at 10 µM / CONFIRMATION [%] 3255: 10 μM compound in 1% DMSO (v/v); for CONFIRMATION [%] 3255: percentage inhibition
Method in brief: as §1

H2030 = assay: Non Small Cell Lung Cancer proliferation assay (Alamar Blue reduction), H2030; format: cell-based, human; conditions: for inhibition at 10 µM / IC50: Homo sapiens; for inhibition at 10 µM: NCI-H2030, primary screening, H2030, read-out: PRIMARY HTS [%] H2030 (percentage inhibition); for inhibition at 10 µM / CONFIRMATION [%] 2030: 10 μM compound in 1% DMSO (v/v); for CONFIRMATION [%] 2030: percentage inhibition
Method in brief: as §1

H1650 = assay: Non Small Cell Lung Cancer proliferation assay (Alamar Blue reduction), H1650; format: cell-based, human; conditions: for inhibition at 10 µM: NCI-H1650, primary screening, H1650, read-out: PRIMARY HTS [%] H1650 (percentage inhibition); for inhibition at 10 µM / CONFIRMATION [%] 1650: 10 μM compound in 1% DMSO (v/v); for CONFIRMATION [%] 1650: percentage inhibition
Method in brief: as §1

[1] = tested on: NHBE (normal human bronchiolar epithelial cells); assay: cells; conditions: Homo sapiens, NHBE, read-out: IC50(uM) NHBE, phenylfuran-2-carboxamide SAR summary
Description: (§2) NHBE (normal human bronchiolar epithelial cells) are primary cells obtained from donor lungs and commercially available from Cambrex. The HPL1D (human peripheral lung epithelial) cell line has been immortalized with the SV40 large T-antigen. WI-38: human lung fibroblast cell line. HPLID, NHBE and WI-38 cells will serve as controls in the chemical screens. WT: wildtype; WT*: over-expressed wildtype.
(§3) Compounds were tested in dose response studies from […] to 5 nM against several non small cell lung cancer lines: H358, H827, H1118, H1650, H1734, H1975, H2030, and H3255, and were also studied in a 72 hour cytotoxicity assay against the NHBE and WI-38 cell lines.

H827 = assay: Non Small Cell Lung Cancer proliferation assay (Alamar Blue reduction), H827; format: cell-based; conditions: Homo sapiens; read-out: Dose Response (uM) H827
Description: […] are grown and maintained in Corning 175 cm2 flasks in RPMI 1640 media supplemented with 10% FBS, 1% antibiotic solution, 1% additional glutamine and pyruvate. These cells have a doubling time of 1-2 days. All cell types are adherent and grow in colonies. The cells should be kept at a density between 50,000 cells/mL -500,000 cells/mL to provide for optimum growth and adequate nutrition. The cell line should be maintained at 37° C. in a humidified atmosphere with 5% CO2 in a sterile cell culture incubator.
(§4) Non Small Cell Lung Cancer Proliferation Assay. To perform the assay, the Non Small Cell Lung Cancer lines are diluted in media and plated into 384 well microplates at a final density of 250 cells in […]. To ensure consistency and minimal pipetting error, the cells are plated using the Multidrop 384 with the following settings: Rocker Switch set at 384, Volume 45 and Column 24.
(§5) Low Controls for this assay are made by treating Non Small Cell Lung Cancer cells with 5 ul of staurosporine at 250 uM in 10% DMSO and 1% SDS. [Final concentration in this assay is 25 uM staurosporine in 1% DMSO and 0.1% SDS.]
(§6) High Controls for this assay are made by treating Non Small Cell Lung Cancer cells with 5 ul of 10% DMSO. [Final concentration in this assay is 1% DMSO].
(§7) The remaining wells of the 384 microplate may be treated with different compounds depending on the study. Important Note: All compounds for testing in this assay should be done at the final concentration of 1% DMSO.
(§8) After addition, the cells are placed in cell culture incubator at 37° C. for 48 hours for complete treatment.
(§9) After drug treatment, cytotoxicity is measured by Alamar Blue reduction. 5 μL of Alamar Blue is added to the 384 microplates using the Flexdrop.
(§10) The cells are incubated for 48 hours at 37° C. to complete the Alamar Blue reduction.
(§11) The final step in the assay is to measure the amount of Alamar Blue reduction. […] The Alamar Blue fluorescence is measured at an excitation of 530 nm and emission of 590 nm.
(§12) For the NSCLC project, the cell based assay was screened against a small molecule library of approximately 200,000 compounds. The compound library is stored in our automated robotic freezer (Biophile) at −20° C. in 100% DMSO. Compound freeze and thaw cycles are kept to a minimum. Compounds for use are diluted into the appropriate concentration and plated into 384 well microplates using our custom built low volume 384-well head tool (TPS 384, Apricot Designs Inc., CA, USA). This assay was performed on a fully automated linear track robotic platform (CRS F3 Robot System, Thermo Electron Corp., Ontario, Canada) utilizing several integrated peripherals for plate handling, liquid dispensing, and readout detection. First, non-small cell lung cancer cell lines are dispensed into 384 well microplates (Corning #3712 Tissue Culture Treated Plate, Corning, N.Y., USA) with 5 μL of test compounds at 100 uM in 10% DMSO for screening studies or 1 mM in 10% DMSO to 50 nM in 10% DMSO for dose response studies. The microplates are then placed at 37° C. for 48 hours to complete treatment of cells with compounds. Next, 5 ul of alamar blue was added using a liquid dispenser (Flexprop Precision Dispenser, Perkin Elmer, Mass., USA) and incubated for 48 hours at 37° C. The alamar blue prompt fluorescence was measured on Victor V (Victor^3 V, Perkin Elmer, Mass., USA) and output data files were loaded into ORIS (Oncology Research Informatics System, MSKCC, NY, USA), a screening data acquisition and analysis platform.

H358 = assay: Non Small Cell Lung Cancer proliferation assay (Alamar Blue reduction), H358; format: cell-based; conditions: Homo sapiens, NCI-H358; read-out: Dose Response (uM) H358
Description: (§13) These cells have a doubling time of 1-2 days. All cell types are adherent and grow in colonies. The cells should be kept at a density between 50,000 cells/mL -500,000 cells/mL to provide for optimum growth and adequate nutrition. The cell line should be maintained at 37° C. in a humidified atmosphere with 5% CO2 in a sterile cell culture incubator.
(§14) Non Small Cell Lung Cancer Proliferation Assay.
as §6
(§15) Important Note: All compounds for testing in this assay should be done at the final concentration of 1% DMSO.
as §8
(§16) After drug treatment, cytotoxicity is measured by Alamar Blue reduction.
as §10, §11
as §12, with “Compounds for use are diluted into the appropriate concentration and plated into 384 well microplates using our custom built low volume 384-well head tool (TPS 384, Apricot Designs Inc., CA, USA).” left out, “First, non-small cell lung cancer cell lines are dispensed into 384 well microplates (Corning #3712 Tissue Culture Treated Plate, Corning, N.Y., USA) with 5 μL of test compounds at 100 uM in 10% DMSO for screening studies or 1 mM in 10% DMSO to 50 nM in 10% DMSO for dose response studies.” left out
(§17) The dose response studies were done with the following standard procedure. First, the cells were counted and dispensed at 250 cells/well into 384-well microplates with compound. The cells were incubated for 48 hours at 37 C to complete treatment, and then alamar blue was added for an additional 48 hours. Finally, alamar blue reduction was measured and the data was loaded into ORIS, our data screening acquisition platform.

in vitro = conditions: human
Description: as §2, §3

H1734 = assay: Non Small Cell Lung Cancer proliferation assay (Alamar Blue reduction), H1734; format: cell-based, human; conditions: Homo sapiens, NCI-H1734; read-out: Dose Response (uM) H1734
Description: as §13, §14, §6, §15, §8, §16, §10, §11
as §12, with “Compounds for use are diluted into the appropriate concentration and plated into 384 well microplates using our custom built low volume 384-well head tool (TPS 384, Apricot Designs Inc., CA, USA).” left out, “First, non-small cell lung cancer cell lines are dispensed into 384 well microplates (Corning #3712 Tissue Culture Treated Plate, Corning, N.Y., USA) with 5 μL of test compounds at 100 uM in 10% DMSO for screening studies or 1 mM in 10% DMSO to 50 nM in 10% DMSO for dose response studies.” left out
as §17

H1118 = assay: Non Small Cell Lung Cancer proliferation assay (Alamar Blue reduction), H1118; format: cell-based; conditions: Homo sapiens; read-out: Dose Response (uM) H1118
Description: as §4, §5, §6, §7, §8, §9, §10, §11, §12, §17

[2] = Homo sapiens, NCI-H1650, phenylfuran-2-carboxamide SAR summary, read-out: IC50(uM) 1650
[3] = NCI-H1975, dose response 10 M to 5 nM, IC50, read-out: Dose Response (uM) H1975
[4] = NCI-H3255, dose response 10 M to 5 nM, IC50, read-out: Dose Response (uM) H3255
[5] = NCI-H2030, dose response 10 M to 5 nM, IC50, read-out: Dose Response (uM) H2030
[6] = Homo sapiens, NCI-H1650, dose response 10 M to 5 nM, IC50, read-out: Dose Response (uM) H1650

Structure (SMILES)	IC50 (H1650; [2]) [µM]	IC50 (H1975; [3]) [µM]	IC50 (H3255; [4]) [µM]	IC50 (H827) [µM]	IC50 (H2030; [5]) [µM]	IC50 (H358) [µM]	IC50 (H1650; [6]) [µM]	IC50 (H1734) [µM]	IC50 (H1118) [µM]	inhibition at 10 µM (H1975) [%]	CONFIRMATION [%] 1975 (H1975)	inhibition at 10 µM (H3255) [%]	CONFIRMATION [%] 3255 (H3255) [%]	inhibition at 10 µM (H2030) [%]	CONFIRMATION [%] 2030 (H2030)	inhibition at 10 µM (H1650; Homo sapiens) [%]	CONFIRMATION [%] 1650 (H1650)	IC50 [1] [µM]	IC50 at 72 h (in vitro; CytoTox (uM) NHBE) [µM]	IC50 at 72 h (in vitro; CytoTox (uM) WI-38) [µM]	other results
O=C(Nc1ccc(Cl)cc1C(F)(F)F)c1ccc([N+](=O)[O-])o1 [compound 64228]	1.6	–	–	–	–	–	–	–	–	82	70% and 97%	91	97	93	90% and 105%	87	111% and 107%	13.2	–	–	IC50 (H1650; phenylfuran-2-carboxamide SAR summary, read-out: IC50(uM) 1650): 2.31 µM
O=C(NC1CCCCC1)c1ccc([N+](=O)[O-])o1 [compound 71763]	1.39	–	–	–	–	–	–	–	–	61	74%	77	135	82	97%	87	136%	24.9	–	–	IC50 (H1975; NCI-H1975, phenylfuran-2-carboxamide SAR summary, read-out: IC50(uM) 1975): 3.54 µM; IC50 (H3255; NCI-H3255, phenylfuran-2-carboxamide SAR summary, read-out: IC50(uM) 3255): 2.98 µM; IC50 (H2030; NCI-H2030, phenylfuran-2-carboxamide SAR summary, read-out: IC50(uM) 2030): 3.79 µM
O=c1c(Br)c(SCc2ccccc2)cnn1-c1ccccc1 [compound 257021]	–	> 10	> 10	> 10	> 10	> 10	> 10	> 10	> 10	–	–	–	–	–	–	–	–	–	> 10	> 10	–

Second part, led by results:

IC50 (H1650; [2]) [µM]	IC50 (H1975; [3]) [µM]	IC50 (H3255; [4]) [µM]	IC50 (H827) [µM]	IC50 (H2030; [5]) [µM]	IC50 (H358) [µM]	IC50 (H1650; [6]) [µM]	IC50 (H1734) [µM]	IC50 (H1118) [µM]	Structure (SMILES)	inhibition at 10 µM (H1975) [%]	CONFIRMATION [%] 1975 (H1975)	inhibition at 10 µM (H3255) [%]	CONFIRMATION [%] 3255 (H3255) [%]	inhibition at 10 µM (H2030) [%]	CONFIRMATION [%] 2030 (H2030)	inhibition at 10 µM (H1650; Homo sapiens) [%]	CONFIRMATION [%] 1650 (H1650)	IC50 [1] [µM]	IC50 at 72 h (in vitro; CytoTox (uM) NHBE) [µM]	IC50 at 72 h (in vitro; CytoTox (uM) WI-38) [µM]	other results
–	> 10	> 10	> 10	> 10	> 10	> 10	> 10	> 10	O=c1c(Cl)c(SCc2ccccc2)cnn1-c1ccccc1 [compound 257022]	–	–	–	–	–	–	–	–	–	> 10	> 10	–
–	> 10	> 10	> 10	> 10	> 10	> 10	> 10	> 10	N/N=C1\C=NN(c2ccccc2)C(=O)C1Cl (stereo not shown) [compound 257023]	–	–	–	–	–	–	–	–	–	> 10	> 10	–
–	> 10	> 10	> 10	> 10	> 10	> 10	> 10	> 10	CN/N=C1\C=NN(c2ccc(C)cc2)C(=O)C1Cl (stereo not shown) [compound 257025]	–	–	–	–	–	–	–	–	–	> 10	> 10	–
